Data on 25 molecules can be found in patent USRE30451E, “Novel process for producing antibiotics bleomycin” (priority 1969, dated 1980).

System in one series: not given
To be noted: tumour-inoculated ICR/JCL mice, intraperitoneally once a day for 10 days, doses 25 mg/kg to 0.19 mg/kg, Behres-Karber's method, observed up to 50 days.
`Cc1c(N)nc(C(CC(N)=O)NCC(N)C(N)=O)nc1C(=O)NC(C(=O)NC(C)C(O)C(C)C(=O)NC(C(=O)NCCc1nc(-c2nc(C(=O)NCCCNCCCNC(C)c3ccccc3)cs2)cs1)C(C)O)C(OC1OC(CO)C(O)C(O)C1OC1OC(CO)C(O)C(OC(N)=O)C1O)c1cnc[nH]1` (centres unmarked) [Compound 15] showed an LD50 of 13.1.

A further series relates to Ehrlich ascites carcinoma cells. To be noted: maximum dose level at which mice survive 100 to 200 percent of control survival days; intraperitoneally once a day for 10 days, doses 25 mg/kg to 0.19 mg/kg.
For the molecule `Cc1c(N)nc(C(CC(N)=O)NCC(N)C(N)=O)nc1C(=O)NC(C(=O)NC(C)C(O)C(C)C(=O)NC(C(=O)NCCc1nc(-c2nc(C(=O)NCCCNCCCNC3CCCCC3)cs2)cs1)C(C)O)C(OC1OC(CO)C(O)C(O)C1OC1OC(CO)C(O)C(OC(N)=O)C1O)c1cnc[nH]1` (centres unmarked) [Compound 39, 3-(3-cyclohexylaminopropyl)-aminopropylamino bleomycin], the ED50 is listed as 0.19.

In turn, `Cc1c(N)nc(C(CC(N)=O)NCC(N)C(N)=O)nc1C(=O)NC(C(=O)NC(C)C(O)C(C)C(=O)NC(C(=O)NCCc1nc(-c2nc(C(=O)NCCCN3CCN(CCCN)CC3)cs2)cs1)C(C)O)C(OC1OC(CO)C(O)C(O)C1OC1OC(CO)C(O)C(OC(N)=O)C1O)c1cnc[nH]1` (centres unmarked) [Compound 28, 3-[1-{4-(3-aminopropyl)}-piperazino]propylamino-bleomycin] yielded an ED50 of 0.19.

Consider `Cc1c(N)nc(C(CC(N)=O)NCC(N)C(N)=O)nc1C(=O)NC(C(=O)NC(C)C(O)C(C)C(=O)NC(C(=O)NCCc1nc(-c2nc(C(=O)NCCCNCCCNC(C)c3ccccc3)cs2)cs1)C(C)O)C(OC1OC(CO)C(O)C(O)C1OC1OC(CO)C(O)C(OC(N)=O)C1O)c1cnc[nH]1` (centres unmarked) [Compound 15], for which the ED50 is 0.39.

Turning to `CCCCNCCCNCCCNC(=O)c1csc(-c2csc(CCNC(=O)C(NC(=O)C(C)C(O)C(C)NC(=O)C(NC(=O)c3nc(C(CC(N)=O)NCC(N)C(N)=O)nc(N)c3C)C(OC3OC(CO)C(O)C(O)C3OC3OC(CO)C(O)C(OC(N)=O)C3O)c3cnc[nH]3)C(C)O)n2)n1` (centres unmarked) [Compound 12, 3-(3-N-butyl-aminopropyl)-aminopropylamino-bleomycin], the ED50 stood at 0.19.

`Cc1c(N)nc(C(CC(N)=O)NCC(N)C(N)=O)nc1C(=O)NC(C(=O)NC(C)C(O)C(C)C(=O)NC(C(=O)NCCc1nc(-c2nc(C(=O)NCCc3cnc[nH]3)cs2)cs1)C(C)O)C(OC1OC(CO)C(O)C(O)C1OC1OC(CO)C(O)C(OC(N)=O)C1O)c1cnc[nH]1` (centres unmarked) [Compound 42, 2-(4-imidazolyl)-ethylamino-bleomycin] had an ED50 of 0.78.

`CO[C@@]12[C@H](COC(N)=O)C3=C(C(=O)C(C)=C(N)C3=O)N1C[C@@H]1N[C@@H]12` [Mytomycin C, reference compound]: the ED50 stood at 0.39.

Molecule `Cc1c(N)nc(C(CC(N)=O)NCC(N)C(N)=O)nc1C(=O)NC(C(=O)NC(C)C(O)C(C)C(=O)NC(C(=O)NCCc1nc(-c2nc(C(=O)NCCCN(C)C)cs2)cs1)C(C)O)C(OC1OC(CO)C(O)C(O)C1OC1OC(CO)C(O)C(OC(N)=O)C1O)c1cnc[nH]1` (centres unmarked) [Compound 19, 3-(N,N-dimethyl)-aminopropylamino-bleomycin] registered an ED50 of 0.39.

As to `Cc1c(N)nc(C(CC(N)=O)NCC(N)C(N)=O)nc1C(=O)NC(C(=O)NC(C)C(O)C(C)C(=O)NC(C(=O)NCCc1nc(-c2nc(C(=O)NCCCNCCCN3CCOCC3)cs2)cs1)C(C)O)C(OC1OC(CO)C(O)C(O)C1OC1OC(CO)C(O)C(OC(N)=O)C1O)c1cnc[nH]1` (centres unmarked) [Compound 31, 3-(3-morpholinopropyl)-aminopropylamino-bleomycin], the ED50 was 0.19.

Regarding `Cc1c(N)nc(C(CC(N)=O)NCC(N)C(N)=O)nc1C(=O)NC(C(=O)NC(C)C(O)C(C)C(=O)NC(C(=O)NCCc1nc(-c2nc(C(=O)NCCNCC(C)O)cs2)cs1)C(C)O)C(OC1OC(CO)C(O)C(O)C1OC1OC(CO)C(O)C(OC(N)=O)C1O)c1cnc[nH]1` (centres unmarked) [Compound 13, 2-(2-hydroxypropyl)-aminoethylamino-bleomycin], the ED50 came out at 0.39.

Consider `Cc1c(N)nc([C@H](CC(N)=O)NC[C@H](N)C(N)=O)nc1C(=O)N[C@H](C(=O)N[C@H](C)[C@@H](O)[C@H](C)C(=O)N[C@H](C(=O)NCCc1nc(-c2nc(C(=O)NCCC[S+](C)C)cs2)cs1)[C@@H](C)O)[C@@H](O[C@@H]1O[C@@H](CO)[C@@H](O)[C@H](O)[C@@H]1O[C@H]1O[C@H](CO)[C@@H](O)[C@H](OC(N)=O)[C@@H]1O)c1c[nH]cn1.[Br-]` [Compound 1, Bleomycin A2, reference compound], for which the ED50 came out at 0.78.

For `Cc1c(N)nc(C(CC(N)=O)NCC(N)C(N)=O)nc1C(=O)NC(C(=O)NC(C)C(O)C(C)C(=O)NC(C(=O)NCCc1nc(-c2nc(C(=O)NCC(C)N)cs2)cs1)C(C)O)C(OC1OC(CO)C(O)C(O)C1OC1OC(CO)C(O)C(OC(N)=O)C1O)c1cnc[nH]1` (centres unmarked) [Compound 16, 2-aminopropylamino-bleomycin], the ED50 worked out at 0.39.

For the molecule `CCN(CC)CCCNC(=O)c1csc(-c2csc(CCNC(=O)C(NC(=O)C(C)C(O)C(C)NC(=O)C(NC(=O)c3nc(C(CC(N)=O)NCC(N)C(N)=O)nc(N)c3C)C(OC3OC(CO)C(O)C(O)C3OC3OC(CO)C(O)C(OC(N)=O)C3O)c3cnc[nH]3)C(C)O)n2)n1` (centres unmarked) [Compound 11, 3,-N,N-diethylaminopropylamino-bleomycin], the ED50 was found to be 0.19.

The molecule `Cc1c(N)nc(C(CC(N)=O)NCC(N)C(N)=O)nc1C(=O)NC(C(=O)NC(C)C(O)C(C)C(=O)NC(C(=O)NCCc1nc(-c2nc(C(=O)NCCCN3CCCC3)cs2)cs1)C(C)O)C(OC1OC(CO)C(O)C(O)C1OC1OC(CO)C(O)C(OC(N)=O)C1O)c1cnc[nH]1` (centres unmarked) [Compound 24, 3-(pyrrolidino)-propylamino-bleomycin] displayed an ED50 of 0.39.

`Cc1c(N)nc(C(CC(N)=O)NCC(N)C(N)=O)nc1C(=O)NC(C(=O)NC(C)C(O)C(C)C(=O)NC(C(=O)NCCc1nc(-c2nc(C(=O)NCCCN(C)CCCN)cs2)cs1)C(C)O)C(OC1OC(CO)C(O)C(O)C1OC1OC(CO)C(O)C(OC(N)=O)C1O)c1cnc[nH]1` (centres unmarked) [Compound 22, 3-[N-methyl-N-(3-aminopropyl)]-aminopropylamino-bleomycin] came in with an ED50 of 0.19.

Take `Cc1c(N)nc(C(CC(N)=O)NCC(N)C(N)=O)nc1C(=O)NC(C(=O)NC(C)C(O)C(C)C(=O)NC(C(=O)NCCc1nc(-c2nc(C(=O)NCC3CCNCC3)cs2)cs1)C(C)O)C(OC1OC(CO)C(O)C(O)C1OC1OC(CO)C(O)C(OC(N)=O)C1O)c1cnc[nH]1` (centres unmarked) [Compound 41, 4-piperidylmethylamino-bleomycin]: the ED50 is listed as 0.78.

`Cc1c(N)nc(C(CC(N)=O)NCC(N)C(N)=O)nc1C(=O)NC(C(=O)NC(C)C(O)C(C)C(=O)NC(C(=O)NCCc1nc(-c2nc(C(=O)NCCCN3CCNCC3)cs2)cs1)C(C)O)C(OC1OC(CO)C(O)C(O)C1OC1OC(CO)C(O)C(OC(N)=O)C1O)c1cnc[nH]1` (centres unmarked) [Compound 14, 3-(piperazino)propylamino-bleomycin]: the ED50 is listed as 0.39.

In turn, `Cc1c(N)nc(C(CC(N)=O)NCC(N)C(N)=O)nc1C(=O)NC(C(=O)NC(C)C(O)C(C)C(=O)NC(C(=O)NCCc1nc(-c2nc(C(=O)NCCCN3CCCCC3)cs2)cs1)C(C)O)C(OC1OC(CO)C(O)C(O)C1OC1OC(CO)C(O)C(OC(N)=O)C1O)c1cnc[nH]1` (centres unmarked) [Compound 25, 3-(piperidino)-propylamino-bleomycin] showed an ED50 of 0.39.

`Cc1c(N)nc(C(CC(N)=O)NCC(N)C(N)=O)nc1C(=O)NC(C(=O)NC(C)C(O)C(C)C(=O)NC(C(=O)NCCc1nc(-c2nc(C(=O)NCCCN3CCOCC3)cs2)cs1)C(C)O)C(OC1OC(CO)C(O)C(O)C1OC1OC(CO)C(O)C(OC(N)=O)C1O)c1cnc[nH]1` (centres unmarked) [Compound 26, 3-(morpholino)-propylamoni-bleomycin] registered an ED50 of 0.78.

Turning to `Cc1c(N)nc(C(CC(N)=O)NCC(N)C(N)=O)nc1C(=O)NC(C(=O)NC(C)C(O)C(C)C(=O)NC(C(=O)NCCc1nc(-c2nc(C(=O)NCCCNC3CCCCC3)cs2)cs1)C(C)O)C(OC1OC(CO)C(O)C(O)C1OC1OC(CO)C(O)C(OC(N)=O)C1O)c1cnc[nH]1` (centres unmarked) [Compound 38, 3-cyclohexylaminopropylamino-bleomycin], the ED50 is 0.39.

The molecule `Cc1c(N)nc(C(CC(N)=O)NCC(N)C(N)=O)nc1C(=O)NC(C(=O)NC(C)C(O)C(C)C(=O)NC(C(=O)NCCc1nc(-c2nc(C(=O)NCCCNCCCN3CCCCC3)cs2)cs1)C(C)O)C(OC1OC(CO)C(O)C(O)C1OC1OC(CO)C(O)C(OC(N)=O)C1O)c1cnc[nH]1` (centres unmarked) [Compound 30, 3-(3-piperidinopropyl)-aminopropylamino-bleomycin] showed an ED50 of 0.39.

As for `CNCCCNC(=O)c1csc(-c2csc(CCNC(=O)C(NC(=O)C(C)C(O)C(C)NC(=O)C(NC(=O)c3nc(C(CC(N)=O)NCC(N)C(N)=O)nc(N)c3C)C(OC3OC(CO)C(O)C(O)C3OC3OC(CO)C(O)C(OC(N)=O)C3O)c3cnc[nH]3)C(C)O)n2)n1` (centres unmarked) [Compound 17, 3-N-methylaminopropylamino-bleomycin], the ED50 is listed as 0.19.

The molecule `Cc1c(N)nc(C(CC(N)=O)NCC(N)C(N)=O)nc1C(=O)NC(C(=O)NC(C)C(O)C(C)C(=O)NC(C(=O)NCCc1nc(-c2nc(C(=O)NCCC[N+](C)(C)C)cs2)cs1)C(C)O)C(OC1OC(CO)C(O)C(O)C1OC1OC(CO)C(O)C(OC(N)=O)C1O)c1cnc[nH]1` (centres unmarked) [Compound 20, 3-(N,N,N-trimethyl)-aminopropylamino-bleomycin] yielded an ED50 of 0.19.

As for `Cc1c(N)nc(C(CC(N)=O)NCC(N)C(N)=O)nc1C(=O)NC(C(=O)NC(C)C(O)C(C)C(=O)NC(C(=O)NCCc1nc(-c2nc(C(=O)NCCN(C)C)cs2)cs1)C(C)O)C(OC1OC(CO)C(O)C(O)C1OC1OC(CO)C(O)C(OC(N)=O)C1O)c1cnc[nH]1` (centres unmarked) [Compound 9, 3-N,N-dimethylaminoethylamino-bleomycin], the ED50 was 0.39.

Regarding `Cc1c(N)nc(C(CC(N)=O)NCC(N)C(N)=O)nc1C(=O)NC(C(=O)NC(C)C(O)C(C)C(=O)NC(C(=O)NCCc1nc(-c2nc(C(=O)NCCCNCCCN3CCCC3)cs2)cs1)C(C)O)C(OC1OC(CO)C(O)C(O)C1OC1OC(CO)C(O)C(OC(N)=O)C1O)c1cnc[nH]1` (centres unmarked) [Compound 29, 3-(3-pyrrolidinopropyl)-aminopropylamino-bleomycin], the ED50 worked out at 0.09.

Consider `Cc1c(N)nc(C(CC(N)=O)NCC(N)C(N)=O)nc1C(=O)NC(C(=O)NC(C)C(O)C(C)C(=O)NC(C(=O)NCCc1nc(-c2nc(C(=O)NCCCNCCCO)cs2)cs1)C(C)O)C(OC1OC(CO)C(O)C(O)C1OC1OC(CO)C(O)C(OC(N)=O)C1O)c1cnc[nH]1` (centres unmarked) [Compound 32, 3-(3-hydroxypropyl)-aminopropylamino-bleomycin], for which the ED50 is 0.19.
